Source: patent US20150290193A1, “NOVEL APPROACHES FOR INDIVIDUALIZED THERAPY OF PANCREATIC DUCTAL ADENOCARCINOMA” (HI-STEM gGmbH, priority 2012, published 2015)

Legend:
stable PDAC cell lines = test: Dose-escalation IC50 determination, cell viability by CellTiterBlue; assay type: cell-based, human; details: 72 h; 3-fold serial dilutions in quadruplicates
Procedure: For calculation of the IC50, 3-fold serial dilutions of selected compounds were screened in quadruplicates, incubated for 72 h after which cell viability was assessed using CellTiterBlue as described. Raw data was normalized to positive and negative controls present on each individual plate IC50 values were calculated using GraphPad Prism (Graph Pad Software, La Jolla).
For calculation of the IC50 serial dilutions of selected compounds were screened in quadruplicates. In brief, 8,000 cells/well were seeded 24 h prior to addition of individual compounds in 96-well plates. After incubation for 72 h, cell viability was assessed using CellTiterBlue (Promega, Mannheim) as described. Raw data was normalized to positive and negative controls present on each individual plate. IC50 values were calculated using GraphPad Prism (Graph Pad Software, La Jolla).

[1] = test system: PACO tumors (transplanted human PDAC tumors); test: In vivo drug screen, subcutaneous PACO tumors in NSG mice, relative tumor volume; details: tumors of all three subtypes; 125 mg/kg i.p. twice weekly
Procedure: Three groups of mice that each carried transplanted human tumors of one either the sensitive or the resistant subtypes were treated with Dasatinib, either alone or in combination with the chemotherapeutic agent Gemcitabine.
PACO tumors were established by injecting 5×10^5 cells subcutaneously into a cohort 20 NOD.Cg-Prkdcscid Il2rgtm1Wjl (NSG) mice. After the tumors reached a size of approx. 200 mm^3, mice were randomized into two groups of each 10 mice—Control, Gemcitabine, Dasatinib or combination of both. Gemcitabine was dissolved in 0.8% buffered saline and administered twice weekly at 125 mg/kg i.p. Dasatinib was prepared in citrate/citric acid buffer (pH 3) and administered daily via oral gavage at 25 mg/kg. Tumor volume was determined twice weekly via caliper measurements and calculated according the formula (length×height×width)×(π/6). Relative tumor growth was calculated for each individual tumor in relation to the volume calculated as of the start of the experiment.
Tumor size is expressed as relative volume normalized to the day of start of treatment.

| Structure (SMILES) | fold lower IC50 value of the classical subtype versus exocrine-like and quasi-mesenchymal PDAC cells (stable PDAC cell lines) | tumor growth, Gemcitabine alone [1] |
| --- | --- | --- |
| Cc1nc(Nc2ncc(C(=O)Nc3c(C)cccc3Cl)s2)cc(N2CCN(CCO)CC2)n1 [Dasatinib] | > 10,000 fold | – |
| Nc1ccn([C@@H]2O[C@H](CO)[C@@H](O)C2(F)F)c(=O)n1 [Gemcitabine] | – | growth-inhibitory effect on tumors of all three subtypes, however did not lead to a complete stop in tumor growth |
